The NIST ThermoML archive (doi:10.1016/j.jct.2017.03.026)
Several values for one entry are separate records, joined by “and”; a condition that tells them apart may be missing. Equal values may be shown once.

Experiment: molar heat capacity at constant pressure
Details: 101.33 kPa, Crystal, Small (less than 1 g) adiabatic calorimetry

O.O.O.O.O.O=S(=O)([O-])[O-].[Cu+2] [copper(II) sulfate pentahydrate]
Details	molar heat capacity at constant pressure
287.75 K	289.04 J/K/mol
287.82 K	289.61 J/K/mol
288.14 K	289.34 J/K/mol
288.18 K	290.46 J/K/mol
288.42 K	289.31 J/K/mol
288.47 K	290.31 J/K/mol
288.59 K	291.83 J/K/mol
288.8 K	291.86 J/K/mol
289.09 K	290.24 J/K/mol
289.13 K	293.01 J/K/mol
289.48 K	297.45 J/K/mol
289.75 K	292.88 J/K/mol
289.76 K	282.28 J/K/mol and 282.25 J/K/mol and 292.61 J/K/mol
289.83 K	290.48 J/K/mol
290 K	282.3 J/K/mol
290.23 K	291.98 J/K/mol
290.44 K	291.33 J/K/mol
290.57 K	288.74 J/K/mol
290.91 K	292.31 J/K/mol and 292.23 J/K/mol
291.11 K	292.78 J/K/mol and 291.01 J/K/mol
291.26 K	298.2 J/K/mol
291.62 K	292.93 J/K/mol
291.78 K	291.86 J/K/mol
291.96 K	292.13 J/K/mol
292.07 K	282.87 J/K/mol
292.1 K	293.31 J/K/mol
292.31 K	293.26 J/K/mol
292.46 K	294.11 J/K/mol
292.51 K	284.12 J/K/mol
292.65 K	291.23 J/K/mol
292.99 K	292.66 J/K/mol
293.15 K	293.46 J/K/mol
293.27 K	294.35 J/K/mol
293.33 K	294.9 J/K/mol
293.67 K	295.88 J/K/mol
293.82 K	293.83 J/K/mol
294.03 K	294.9 J/K/mol and 295.65 J/K/mol
294.37 K	295.73 J/K/mol
294.44 K	295.25 J/K/mol
294.48 K	285.79 J/K/mol
294.5 K	295.03 J/K/mol
294.72 K	294.11 J/K/mol
295.06 K	293.36 J/K/mol
295.25 K	295.78 J/K/mol
295.26 K	286 J/K/mol
295.4 K	295.15 J/K/mol
295.61 K	296.03 J/K/mol
295.81 K	299.05 J/K/mol
295.94 K	296.5 J/K/mol
296.17 K	298.85 J/K/mol
296.52 K	298.75 J/K/mol
296.64 K	295.93 J/K/mol
296.79 K	296.15 J/K/mol
296.84 K	287.36 J/K/mol
296.88 K	296.35 J/K/mol
296.93 K	297 J/K/mol
297.22 K	297.15 J/K/mol
297.32 K	296.23 J/K/mol
297.57 K	297.23 J/K/mol
297.91 K	299.05 J/K/mol
297.94 K	297.85 J/K/mol
298 K	296.85 J/K/mol
298.02 K	287.88 J/K/mol
298.15 K	288 J/K/mol
298.25 K	298.42 J/K/mol
298.59 K	299.17 J/K/mol
298.68 K	299.05 J/K/mol
298.94 K	299.4 J/K/mol
299.12 K	298.65 J/K/mol
299.23 K	288.76 J/K/mol
299.29 K	300.47 J/K/mol
299.37 K	298.15 J/K/mol
299.64 K	299.5 J/K/mol
299.82 K	299.2 J/K/mol
300 K	289.3 J/K/mol
300.06 K	299.2 J/K/mol
300.3 K	299.45 J/K/mol
300.75 K	298.85 J/K/mol
300.77 K	289.98 J/K/mol
301.44 K	299.02 J/K/mol
301.47 K	300.17 J/K/mol
301.59 K	289.49 J/K/mol
302.12 K	300.57 J/K/mol
302.65 K	301.05 J/K/mol
302.7 K	301.5 J/K/mol
302.82 K	300.42 J/K/mol
303.5 K	300.72 J/K/mol
303.53 K	291.77 J/K/mol
303.83 K	301.92 J/K/mol
303.92 K	292.06 J/K/mol
304.18 K	301.47 J/K/mol
304.87 K	301.52 J/K/mol
305.01 K	302.77 J/K/mol
305.55 K	302.32 J/K/mol
305.56 K	303.47 J/K/mol
306.19 K	303.64 J/K/mol
306.28 K	293.59 J/K/mol
306.3 K	293.93 J/K/mol and 304.42 J/K/mol
306.99 K	304.54 J/K/mol
307.44 K	304.69 J/K/mol
307.7 K	304.19 J/K/mol
308.38 K	304.52 J/K/mol
308.41 K	305.57 J/K/mol
308.62 K	305.54 J/K/mol
308.68 K	295.75 J/K/mol
309.04 K	295.5 J/K/mol
309.07 K	305.39 J/K/mol
309.75 K	305.67 J/K/mol
309.8 K	305.39 J/K/mol
310 K	296 J/K/mol
310.43 K	305.52 J/K/mol
310.97 K	306.74 J/K/mol
311.08 K	296.13 J/K/mol
311.11 K	306.24 J/K/mol
311.25 K	307.59 J/K/mol
311.79 K	306.69 J/K/mol
311.8 K	297.26 J/K/mol
312.15 K	307.81 J/K/mol
312.47 K	307.31 J/K/mol
313.16 K	307.84 J/K/mol
313.33 K	308.96 J/K/mol
313.44 K	298.8 J/K/mol
313.84 K	308.56 J/K/mol
314.07 K	309.84 J/K/mol
314.51 K	309.76 J/K/mol
314.52 K	309.11 J/K/mol
314.56 K	298.99 J/K/mol
315.19 K	310.48 J/K/mol
315.69 K	310.88 J/K/mol
315.85 K	300.25 J/K/mol
315.89 K	310.18 J/K/mol
316.57 K	310.56 J/K/mol
316.88 K	312.41 J/K/mol and 311.61 J/K/mol
317.31 K	309.31 J/K/mol
317.53 K	300.52 J/K/mol
317.99 K	311.11 J/K/mol
318.06 K	312.53 J/K/mol
318.28 K	301.47 J/K/mol
318.66 K	311.58 J/K/mol
319.25 K	313.46 J/K/mol
319.34 K	313.53 J/K/mol
319.69 K	314.25 J/K/mol
320 K	302.2 J/K/mol
320.02 K	313.28 J/K/mol
320.3 K	302.56 J/K/mol
320.43 K	313.61 J/K/mol
320.7 K	312.78 J/K/mol
320.71 K	302.82 J/K/mol
321.37 K	314.2 J/K/mol
321.6 K	312.51 J/K/mol
322.05 K	315.53 J/K/mol
322.49 K	315.5 J/K/mol
322.74 K	316.33 J/K/mol
322.78 K	316.4 J/K/mol
323.07 K	304.17 J/K/mol
323.15 K	304.37 J/K/mol
323.43 K	315.9 J/K/mol
323.97 K	317.18 J/K/mol
324.11 K	315.95 J/K/mol
